Series [1] is described as follows: Physical parameters (active content, suspensibility, dispersibility, moisture, wet sieve) of a composition of 2,4-D acid, metsulfuron methyl and picloram acid. Format: physicochemical. Further details: unit not given here. The source says: Physical Parameters of a Composition Comprising 2, 4-D Acid, Metsulfuron Methyl and Picloram Acid:
Physical parameters such as suspensibility, dispersibility has been tested for a composition prepared according to the present invention are listed in the below table (Table 2).
As evident from the Table 2, the physical parameters such as suspensibility and dispersibility of the compositions prepared according to the present invention satisfies the requirement for a stable formulation.

A short description of series [2]: Comparative study of degradation of metsulfuron methyl in compositions with 2,4-D acid or 2,4-D sodium salt plus picloram (accelerated heat stability). Format: physicochemical. Particulars: for Active content: picloram, metsulfuron methyl. How it is done:
Degradation of Metsulfuron Methyl in Compositions with 2,4-D Acid and 2,4-D Sodium Salt: Comparative Study
A comparative study of degradation of metsulfuron methyl in composition of 2,4-D acid and 2,4-D sodium salt in combination with picloram was carried out. The results are summarized in the below table (Table 1):
The study was conducted at 0 days as well as after 14 days at 54° C. (accelerated heat stability conditions).

Where [3] appears, read: composition with 2,4-D acid, 0 days.
Where [4] appears, read: composition with 2,4-D acid, 14 days at 54° C.
Setting [5] is: composition with 2,4-sodium salt, 0 days.
Where [6] appears, read: composition with 2,4-sodium salt, 14 days at 54° C.

Structures are written as SMILES.

Take `O=C(O)COc1ccc(Cl)cc1Cl` [2,4-D acid, 2,4-dichlorophenoxy acetic acid]: the results for the “Active ingredient (content)” value in series [1] (14 Day AHS) and in series [1] (Ambient) were 319.6 and 320.5, respectively. Moreover, the Suspensibility came out at 99.10 in series [1] (14 Day AHS) and 99.96 in series [1] (Ambient). Further, the Active content in series [2] (setting [3]) amounted to 333.03 gm; in series [2] (setting [4]) it was 325.01 gm; in series [2] (setting [5]), 325.28 gm; in series [2] (setting [6]), 328.01 gm. Besides, the “% degradation after 14 days” value in series [2] (setting [4]) amounted to 2.41%; in series [2] (setting [6]) it was 0.84%.

As to `COC(=O)c1ccccc1S(=O)(=O)NC(=O)Nc1nc(C)nc(OC)n1` [Metsulfuron methyl], the entries for the “Active ingredient (content)” value in series [1] (14 Day AHS) and in series [1] (Ambient) were 39.30 and 42.3, respectively. Moreover, the results for the Suspensibility in series [1] (14 Day AHS) and in series [1] (Ambient) were 99.75 and 100.90, respectively. The Active content was 46.06 gm in series [2] (setting [3]), 44.42 gm in series [2] (setting [4]), 49.78 gm in series [2] (setting [5]) and 43.88 gm in series [2] (setting [6]).

Take `Nc1c(Cl)c(Cl)nc(C(=O)O)c1Cl` [Picloram acid, Picloram]: the “Active ingredient (content)” value in series [1] (14 Day AHS) worked out at 105.5; in series [1] (Ambient), 106.5. Further, the Suspensibility in series [1] (14 Day AHS) worked out at 99.61; in series [1] (Ambient), 100.50. The Active content in series [2] (setting [3]) is reported as 98.96 gm; in series [2] (setting [4]), 98.05 gm; in series [2] (setting [5]), 95.65 gm; in series [2] (setting [6]), 95.59 gm. The “% degradation after 14 days” value worked out at 0.92% in series [2] (setting [4]) and 0.06% in series [2] (setting [6]).
